Experimental data as given in PubChem BioAssay (NCI).
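A five-concentration, 48-hour dose response in 96-well plates underlies each endpoint, interpolated linearly between surrounding concentrations. GI50 marks 50% less growth. TGI is the concentration that stops growth completely.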

Tests used:
Assay in all cases: NCI tumour cell line growth inhibition, 48 h
K-562 leukemia = tested on: K-562 leukemia
NCI-H226 lung = tested on: NCI-H226 lung
HL-60(TB) leukemia = tested on: HL-60(TB) leukemia
MOLT-4 leukemia = tested on: MOLT-4 leukemia
LOX IMVI melanoma = tested on: LOX IMVI melanoma
UACC-257 melanoma = tested on: UACC-257 melanoma
MALME-3M melanoma = tested on: MALME-3M melanoma
SK-OV-3 ovarian = tested on: SK-OV-3 ovarian
RPMI-8226 leukemia = tested on: RPMI-8226 leukemia
BT-549 breast = tested on: BT-549 breast

Row | Structure (SMILES) | TGI (K-562 leukemia) [µM] | TGI (NCI-H226 lung) [µM] | TGI (HL-60(TB) leukemia) [µM] | TGI (MOLT-4 leukemia) [µM] | TGI (LOX IMVI melanoma) [µM] | TGI (UACC-257 melanoma) [µM] | TGI (MALME-3M melanoma) [µM] | TGI (SK-OV-3 ovarian) [µM] | TGI (RPMI-8226 leukemia) [µM] | GI50 (K-562 leukemia) [µM] | GI50 (NCI-H226 lung) [µM] | GI50 (HL-60(TB) leukemia) [µM] | GI50 (RPMI-8226 leukemia) [µM] | GI50 (MOLT-4 leukemia) [µM] | GI50 (LOX IMVI melanoma) [µM] | GI50 (UACC-257 melanoma) [µM] | GI50 (MALME-3M melanoma) [µM] | GI50 (SK-OV-3 ovarian) [µM] | GI50 (BT-549 breast) [µM] | TGI (BT-549 breast) [µM]
1 | N#Cc1cccc(C2SCc3nc4ccccc4n32)c1 (stereo unspecified) | > 100 | 96.8 | > 100 | > 100 | > 100 | > 100 | > 100 | > 100 |  |  |  |  |  |  |  |  |  |  |  | 
2 | Cc1c(Cl)ccc2[s+]snc12 | 73.7 | > 100 | 43.7 | 95.1 | 49.9 | 89.7 | > 100 | > 100 |  |  |  |  |  |  |  |  |  |  |  | 
3 | O=C1C(=C2C(=O)c3ccccc3[N+]2=O)N([O-])c2ccccc21 | 50.1 | 81.4 | 48.5 | 48.7 | 29.8 |  |  | > 100 | 57.7 |  |  |  |  |  |  |  |  |  |  | 
4 | C#CC[C@]12CC(=O)CC[C@H]1CC1(C2)OCCO1 | > 100 | > 100 | > 100 | > 100 |  | > 100 | > 100 | > 100 | > 100 |  |  |  |  |  |  |  |  |  |  | 
5 | N=C(N)c1ccc(-c2ccc(-c3cccs3)s2)cc1F | 1.31 | 3.86 | 3.83 | 2.87 | 2.67 | 3.43 | 4.48 |  | 0.951 | 0.341 | 1.74 | 1.79 | 0.288 | 1.03 | 1.21 | 1.77 | 2.28 |  |  | 
6 | O=C(CC1(O)C(=O)Nc2ccc(Br)cc21)c1cccc([N+](=O)[O-])c1 (stereo unspecified) | > 100 | 82.5 | 67.3 | 70.1 | > 100 | 78.6 | > 100 | > 100 | 57.9 |  |  |  |  |  |  |  |  |  |  | 
7 | O=C(c1ccccc1)N1CCc2c([nH]c3ccccc23)C1 | > 100 | > 100 | 43.1 | 64.4 | > 100 | 95 | > 100 | > 100 | 74.9 |  |  |  |  |  |  |  |  |  |  | 
8 | C/C=C/C(C/C=C(\C)CO[Si](C)(C)C(C)(C)C)O[Si](C)(C)C(C)(C)C (stereo unspecified) | > 100 | > 100 | > 100 | > 100 | > 100 | > 100 | > 100 | > 100 | > 100 |  |  |  |  |  |  |  |  |  |  | 
9 | CC1(C)OC2OC(/C=C/[N+](=O)[O-])C3OC(C)(C)OC3C2O1 (stereo unspecified) | 27.5 | 37.1 | 10.8 | 13.2 | 22.1 | 20.7 | 10.8 | 34.8 |  |  |  |  |  |  |  |  |  |  |  | 
10 | COc1cc(CC2c3cc(OC)c(OC)cc3CCN2C)c(C(=O)O)cc1OC (stereo unspecified) | > 100 | > 100 | > 100 | > 100 | > 100 | > 100 | > 100 | > 100 | > 100 |  |  |  |  |  |  |  |  |  |  | 
11 | COC(=O)N1C=Cc2c(c(C)c3c([nH]c4ccccc43)c2C)C1C (stereo unspecified) | 37.7 | 35.7 | 52 | 43.3 | 33.7 | 35 | 36.3 | 57.3 | 38.2 |  |  |  |  |  |  |  |  |  |  | 
12 | N#CC1(C2CC(=O)N(c3ccccc3)C2=O)CCCCC1=O (stereo unspecified) | > 100 | > 100 | > 100 | > 100 | > 100 |  | > 100 | > 100 | > 100 |  |  |  |  |  |  |  |  |  |  | 
13 | Cc1cc2c(=O)cc(-c3ccncc3)oc2c(C(N)=O)c1C |  | > 100 | > 100 | > 100 | > 100 | > 100 | > 100 | > 100 | > 100 |  |  |  |  |  |  |  |  |  |  | 
14 | CC[C@H]1CNC(=O)CC1CC(=O)OC (stereo partly specified) |  | > 100 |  | > 100 | > 100 | > 100 | > 100 | > 100 |  |  |  |  |  |  |  |  |  |  |  | 
15 | O=C(Nc1cc(Cl)ccc1Cl)c1cc2ccccc2oc1=O | > 100 |  | > 100 | > 100 | > 100 | > 100 | 90.3 | > 100 | > 100 |  |  |  |  |  |  |  |  |  |  | 
16 | CCCCP1(=O)C=CC(Cl)=C(C)C1 (stereo unspecified) | > 100 |  | > 100 | > 100 |  | > 100 | > 100 |  |  |  |  |  |  |  |  |  |  |  |  | 
17 | O=C(c1ccco1)c1c(C(F)(F)F)n([O-])c2cc(Cl)c(Cl)cc2[n+]1=O | 2.87 | 3.01 | 0.18 | 1.41 | 0.52 | 2.15 | 1.81 | 5.83 | 3.29 | 0.173 | 1.15 | 0.0812 | 0.196 | 0.0591 | 0.169 | 0.761 | 0.824 | 2.95 |  | 

Row | Structure (SMILES) | TGI (K-562 leukemia) [µM] | TGI (NCI-H226 lung) [µM] | TGI (HL-60(TB) leukemia) [µM] | TGI (MOLT-4 leukemia) [µM] | TGI (LOX IMVI melanoma) [µM] | TGI (UACC-257 melanoma) [µM] | TGI (MALME-3M melanoma) [µM] | TGI (SK-OV-3 ovarian) [µM] | TGI (RPMI-8226 leukemia) [µM] | GI50 (K-562 leukemia) [µM] | GI50 (NCI-H226 lung) [µM] | GI50 (HL-60(TB) leukemia) [µM] | GI50 (RPMI-8226 leukemia) [µM] | GI50 (MOLT-4 leukemia) [µM] | GI50 (LOX IMVI melanoma) [µM] | GI50 (UACC-257 melanoma) [µM] | GI50 (MALME-3M melanoma) [µM] | GI50 (SK-OV-3 ovarian) [µM] | GI50 (BT-549 breast) [µM] | TGI (BT-549 breast) [µM]
18 | COc1cc(Br)c(C2OCCCO2)cc1OCc1ccccc1 | > 100 | > 100 | > 100 | > 100 | > 100 |  |  | > 100 | > 100 |  |  |  |  |  |  |  |  |  |  | 
19 | C/C(=N\NC(N)=S)c1ccc(Oc2ccccc2)cc1 | 21.5 |  | 23 | 17.4 | 34.5 |  |  | 36.3 | 10.9 |  |  |  |  |  |  |  |  |  |  | 
20 | O=P(c1ccccc1)(c1ccccc1)C1CC=C2CCCCCC2C1 (stereo unspecified) | 76.9 | 81.1 | 58.9 | 45.3 | 65 | 68.5 | > 100 | 85.9 | 42.7 |  |  |  |  |  |  |  |  |  |  | 
21 | BrC(/C=N/Nc1nnc(-c2ccccc2)c(-c2ccccc2)n1)C(Br)c1ccccc1 (stereo unspecified) | > 100 | 70.4 | 79.5 | > 100 | > 100 | > 100 | > 100 | > 100 | 70.7 |  |  |  |  |  |  |  |  |  |  | 
22 | COc1ccc2c(c1)c(-c1nc(-c3cn(C)c4ncccc34)cs1)cn2CCCCN1CCCCC1 |  | 3.11 |  |  |  |  |  | 3.15 |  |  | 1.52 |  |  |  |  |  |  | 1.71 | 1.64 | 3.05
23 | CCc1cccc(CC)c1NC1=CC(=O)C(=O)c2ccccc21 | > 100 | 88.5 | > 100 | > 100 | 29.3 | 28.6 | 31.9 | 89.5 | > 100 |  |  |  |  |  |  |  |  |  |  | 
24 | Cc1nn(-c2ccccc2)c2c1[C@@H](C)[C@H]1CC3(CC4(C)C[C@@H]3C1(C)c1c(C)nn(-c3ccccc3)c1N4C)N2C (stereo partly specified) |  | > 100 |  |  |  |  | > 100 | > 100 |  |  | > 100 |  |  |  |  |  | > 100 | 24.1 | > 100 | > 100
25 | C=C(CN1CCc2ccccc2C1)c1ccc(C(=O)Nc2cccc(N)c2)cc1 | 30 | 50.8 |  | 28.6 |  | 29.7 | 34.1 | 73.5 | > 100 | 7.53 | 22.3 |  | 16.3 | 6 |  | 14.8 | 15.1 | 29.5 | 16.2 | 34.4
26 | Cc1cc(Br)ccc1N=NC1C(=O)ON=C1c1ccccc1 (stereo unspecified) | > 100 | > 100 | > 100 | > 100 | > 100 | > 100 | > 100 | > 100 | > 100 |  |  |  |  |  |  |  |  |  |  | 
27 | CC(=O)[O-].O=C([CH-]C(=O)c1ccccc1)c1ccccc1.O=C([CH-]C(=O)c1ccccc1)c1ccccc1.[Dy+3] | 17.8 | 15.6 | 11.5 | 31.9 | 30.9 | 40.4 | 67.9 | 61.5 | 34.7 | 3.55 | 3.79 | 2.84 | 7.87 | 4.59 | 12.4 | 15.6 | 21.8 | 16.9 |  | 
28 | CCCCCCCCCCCCCCCCCCCCCCC(=O)N[C@H]1CCc2cc(OC)c(OC)c(OC)c2-c2ccc(SC)c(=O)cc21 | > 100 | 8.23 | 48.9 | > 100 |  | > 100 | > 100 | 53.6 |  |  |  |  |  |  |  |  |  |  |  | 
29 | C=CC(C)(C)[C@@]12CC3C(=O)N[C@@H](Cc4ccccc4)C(=O)N3[C@@H]1N(C(C)=O)c1ccccc12 (stereo partly specified) | > 100 | > 100 | 62.1 | 71.7 | > 100 | > 100 | > 100 | > 100 | > 100 |  |  |  |  |  |  |  |  |  |  | 
30 | CC(=O)Nc1ccc(/C=C/C(=O)c2sc(-n3nc(-c4ccccc4)cc3-c3ccccc3)nc2C)cc1 | > 100 | > 100 | > 100 | > 100 | > 100 | > 100 | > 100 |  | > 100 | > 100 | > 100 | > 100 | > 100 | > 100 | > 100 |  | > 100 |  |  | 
31 | O=C1N(c2ccccc2)C2(O)C(=O)c3ccccc3C2(O)N1c1ccccc1 (stereo unspecified) | > 100 | > 100 |  | > 100 | > 100 | > 100 | > 100 | > 100 | > 100 |  |  |  |  |  |  |  |  |  |  | 
32 | O=c1ccn([C@@H]2C[C@H](CO)CS(=O)C2)c(=O)[nH]1 (stereo partly specified) | > 100 | > 100 | > 100 | > 100 | > 100 | > 100 | > 100 | > 100 | > 100 |  |  |  |  |  |  |  |  |  |  | 
33 | CCOc1ccc(/C=C/C(=O)c2sc(NNC(C)=O)nc2C)cc1 | > 100 |  | > 100 | > 100 | > 100 | > 100 | > 100 | > 100 | > 100 |  |  |  |  |  |  |  |  |  |  | 
